Source: ChEMBL document CHEMBL1201861, “Genomics of Drug Sensitity in Cancer screening data, Wellcome Trust Sanger Institute”

Key:
Test in all cases: cells
CGTH-W-1 = type: functional, cell-based, Homo sapiens; details: Homo sapiens, CGTH-W-1;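 also: growth inhibition of human CGTH-W-1 cells measured by cell viability assay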
Description: SANGER: Inhibition of human CGTH-W-1 cell growth in a cell viability assay.

KALS-1 = type: functional, cell-based, Homo sapiens; details: Homo sapiens, KALS-1; read-out: IC50;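 also: growth inhibition of KALS-1 cells, determined with a cell viability assay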
Description: SANGER: Inhibition of human KALS-1 cell growth in a cell viability assay.

TE-8 = type: functional, cell-based, Homo sapiens; details: Homo sapiens, TE-8;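 also: growth inhibition of TE-8 cells, measured with a cell viability readout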
Description: SANGER: Inhibition of human TE-8 cell growth in a cell viability assay.

NCI-H720 = type: functional, cell-based, Homo sapiens; details: Homo sapiens, NCI-H720;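 also: growth inhibition of human NCI-H720 cells determined by a cell viability assay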
Description: SANGER: Inhibition of human NCI-H720 cell growth in a cell viability assay.

ALL-PO = type: functional, cell-based, Homo sapiens; details: Homo sapiens, ALL-PO;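 also: growth inhibition of ALL-PO cells, read out by a cell viability assay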
Description: SANGER: Inhibition of human ALL-PO cell growth in a cell viability assay.

RXF 393 = type: functional, cell-based, Homo sapiens; details: Homo sapiens, RXF 393;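 also: growth inhibition of human RXF 393 cells, read out with a cell viability assay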
Description: SANGER: Inhibition of human RXF393 cell growth in a cell viability assay.

NCI-H226 = type: functional, cell-based, Homo sapiens; details: Homo sapiens, NCI-H226;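 also: cell viability read-out used to gauge growth inhibition of the cells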
Description: SANGER: Inhibition of human NCI-H226 cell growth in a cell viability assay.

SW 954 = type: functional, cell-based, Homo sapiens; details: Homo sapiens, SW 954;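 also: growth inhibition of SW954 human cancer cells, read out as cell viability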
Description: SANGER: Inhibition of human SW954 cell growth in a cell viability assay.

SK-LMS-1 = type: functional, cell-based, Homo sapiens; details: Homo sapiens, SK-LMS-1;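 also: growth inhibition of human SK-LMS-1 cells, read out with a cell viability assay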
Description: SANGER: Inhibition of human SK-LMS-1 cell growth in a cell viability assay.

TE-12 = type: functional, cell-based, Homo sapiens; details: Homo sapiens, TE-12;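 also: growth inhibition of TE-12 cells, read out by a cell viability assay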
Description: SANGER: Inhibition of human TE-12 cell growth in a cell viability assay.

NCI-H1648 = type: functional, cell-based, Homo sapiens; details: Homo sapiens, NCI-H1648;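 also: cell viability assay measuring inhibition of NCI-H1648 cell growth, from the Sanger screening data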
Description: SANGER: Inhibition of human NCI-H1648 cell growth in a cell viability assay.

LOX IMVI = type: functional, cell-based, Homo sapiens; details: Homo sapiens, LOX IMVI
Description: SANGER: Inhibition of human LOXIMVI cell growth in a cell viability assay.

MN-60 = type: functional, cell-based, Homo sapiens; details: Homo sapiens, MN-60;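 also: growth inhibition of the MN-60 cell line, determined with a cell viability assay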
Description: SANGER: Inhibition of human MN-60 cell growth in a cell viability assay.

MV4-11 = type: functional, cell-based, Homo sapiens, MV-4-11; details: Homo sapiens, MV4-11;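 also: cell viability readout measuring growth inhibition of human MV-4-11 cells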
Description: SANGER: Inhibition of human MV-4-11 cell growth in a cell viability assay.

NCI-H2126 = type: functional, cell-based, Homo sapiens; details: Homo sapiens, NCI-H2126;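 also: growth inhibition of the cancer cell line, determined with a cell viability readout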
Description: SANGER: Inhibition of human NCI-H2126 cell growth in a cell viability assay.

HEL = type: functional, cell-based, Homo sapiens; details: Homo sapiens, HEL;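 also: growth inhibition of HEL cells, read out with a cell viability assay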
Description: SANGER: Inhibition of human HEL cell growth in a cell viability assay.

BT-474 = type: functional, cell-based, Homo sapiens; details: Homo sapiens, BT-474
Description: SANGER: Inhibition of human BT-474 cell growth in a cell viability assay.

DJM-1 = type: functional, cell-based, Homo sapiens; details: Homo sapiens, DJM-1;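 also: growth inhibition of human DJM-1 cells, read out by a cell viability assay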
Description: SANGER: Inhibition of human DJM-1 cell growth in a cell viability assay.

BE-13 = type: functional, cell-based, Homo sapiens; details: Homo sapiens, BE-13;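 also: growth inhibition of human BE-13 cells, measured with a cell viability assay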
Description: SANGER: Inhibition of human BE-13 cell growth in a cell viability assay.

ACN = type: functional, cell-based, Homo sapiens; details: Homo sapiens, ACN;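 also: growth inhibition of the human ACN cell line, read out via cell viability testing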
Description: SANGER: Inhibition of human ACN cell growth in a cell viability assay.

ES1 = type: functional, cell-based, Homo sapiens; details: Homo sapiens, ES1;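 also: growth inhibition of ES1 cells, read out with a cell viability assay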
Description: SANGER: Inhibition of human ES1 cell growth in a cell viability assay.

VA-ES-BJ = type: functional, cell-based, Homo sapiens; details: Homo sapiens, VA-ES-BJ;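 also: growth inhibition of the VA-ES-BJ cell line, read out by a cell viability assay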
Description: SANGER: Inhibition of human VA-ES-BJ cell growth in a cell viability assay.

Calu-6 = type: functional, cell-based, Homo sapiens; details: Homo sapiens, Calu-6;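 also: growth of human Calu-6 cells, read out by a cell viability assay, IC50 marking inhibition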
Description: SANGER: Inhibition of human Calu-6 cell growth in a cell viability assay.

NB5 = type: functional, cell-based, Homo sapiens; details: Homo sapiens, NB5;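 also: growth inhibition of NB5 cells, read out as cell viability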
Description: SANGER: Inhibition of human NB5 cell growth in a cell viability assay.

HCE-4 = type: functional, cell-based; details: Homo sapiens;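 also: cell viability assay measuring inhibition of growth in the human HCE-4 cell line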
Description: SANGER: Inhibition of human HCE-4 cell growth in a cell viability assay.

NCI-H1355 = type: functional, cell-based, Homo sapiens; details: Homo sapiens, NCI-H1355;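 also: growth inhibition of human NCI-H1355 cells, read out by a cell viability assay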
Description: SANGER: Inhibition of human NCI-H1355 cell growth in a cell viability assay.

SK-MEL-2 = type: functional, cell-based, Homo sapiens; details: Homo sapiens, SK-MEL-2;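 also: growth inhibition of human SK-MEL-2 cells measured with a cell viability assay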
Description: SANGER: Inhibition of human SK-MEL-2 cell growth in a cell viability assay.

NCI-H1092 = type: functional, cell-based, Homo sapiens; details: Homo sapiens, NCI-H1092;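 also: cell growth inhibition measured with a cell viability assay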
Description: SANGER: Inhibition of human NCI-H1092 cell growth in a cell viability assay.

NB10 = type: functional, cell-based, Homo sapiens; details: Homo sapiens, NB10;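 also: growth inhibition of NB10 cells, read out by a cell viability assay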
Description: SANGER: Inhibition of human NB10 cell growth in a cell viability assay.

IA-LM = type: functional, cell-based; details: Homo sapiens;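 also: cell viability assay measuring growth inhibition of human IA-LM cells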
Description: SANGER: Inhibition of human IA-LM cell growth in a cell viability assay.

HCC1187 = type: functional, cell-based, Homo sapiens; details: Homo sapiens, HCC1187;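 also: growth inhibition of HCC1187 cells, read out with a cell viability assay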
Description: SANGER: Inhibition of human HCC1187 cell growth in a cell viability assay.

MHH-NB-11 = type: functional, cell-based, Homo sapiens; details: Homo sapiens, MHH-NB-11;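 also: growth inhibition of human MHH-NB-11 cells, read out by a cell viability assay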
Description: SANGER: Inhibition of human MHH-NB-11 cell growth in a cell viability assay.

NCI-H1395 = type: functional, cell-based, Homo sapiens; details: Homo sapiens, NCI-H1395;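 also: cell viability assay read-out quantifying reduced proliferation of human NCI-H1395 cells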
Description: SANGER: Inhibition of human NCI-H1395 cell growth in a cell viability assay.

NCI-H446 = type: functional, cell-based, Homo sapiens; details: Homo sapiens, NCI-H446;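 also: growth inhibition of NCI-H446 cells determined by a cell viability assay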
Description: SANGER: Inhibition of human NCI-H446 cell growth in a cell viability assay.

MPP-89 = type: functional, cell-based, Homo sapiens; details: Homo sapiens, MPP-89;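 also: growth inhibition of human MPP-89 cells, read out with a cell viability assay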
Description: SANGER: Inhibition of human MPP-89 cell growth in a cell viability assay.

NCI-H1770 = type: functional, cell-based, Homo sapiens; details: Homo sapiens, NCI-H1770;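 also: growth inhibition of NCI-H1770 cells determined with a viability readout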
Description: SANGER: Inhibition of human NCI-H1770 cell growth in a cell viability assay.

K562 = type: functional, cell-based, Homo sapiens; details: Homo sapiens, K562
Description: SANGER: Inhibition of human K-562 cell growth in a cell viability assay.

IST-SL1 = type: functional, cell-based, Homo sapiens; details: Homo sapiens, IST-SL1;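 also: growth inhibition of human IST-SL1 cells, read out with a cell viability assay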
Description: SANGER: Inhibition of human IST-SL1 cell growth in a cell viability assay.

SK-N-DZ = type: functional, cell-based, Homo sapiens; details: Homo sapiens, SK-N-DZ; read-out: IC50;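 also: growth inhibition of the cancer cell line, read out through a viability assay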
Description: SANGER: Inhibition of human SK-N-DZ cell growth in a cell viability assay.

GCIY = type: functional, cell-based, Homo sapiens; details: Homo sapiens, GCIY;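 also: growth inhibition of the human GCIY cell line, read out by a cell viability assay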
Description: SANGER: Inhibition of human GCIY cell growth in a cell viability assay.

GI-ME-N = type: functional, cell-based, Homo sapiens; details: Homo sapiens, GI-ME-N;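 also: growth inhibition of human GI-ME-N cells, read out with a cell viability assay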
Description: SANGER: Inhibition of human GI-ME-N cell growth in a cell viability assay.

U-266 = type: functional, cell-based, Homo sapiens; details: Homo sapiens, U-266
Description: SANGER: Inhibition of human U-266 cell growth in a cell viability assay.

MOLT-4 = type: functional, cell-based, Homo sapiens; details: Homo sapiens, MOLT-4;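 also: growth inhibition of MOLT-4 cells, determined with a cell viability readout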
Description: SANGER: Inhibition of human MOLT-4 cell growth in a cell viability assay.

OMC-1 = type: functional, cell-based, Homo sapiens; details: Homo sapiens, OMC-1;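 also: growth inhibition of the OMC-1 cell line, measured by a cell viability assay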
Description: SANGER: Inhibition of human OMC-1 cell growth in a cell viability assay.

EW-3 = type: functional, cell-based, Homo sapiens; details: Homo sapiens, EW-3;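 also: cell viability assay read-out, IC50 reflects inhibition of growth of the EW-3 cells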
Description: SANGER: Inhibition of human EW-3 cell growth in a cell viability assay.

EW-13 = type: functional, cell-based, Homo sapiens; details: Homo sapiens, EW-13; read-out: IC50;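 also: growth inhibition of EW-13 cells, read out with a cell viability assay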
Description: SANGER: Inhibition of human EW-13 cell growth in a cell viability assay.

P30-OHK = type: functional, cell-based, Homo sapiens; details: Homo sapiens, P30-OHK;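 also: growth inhibition of the P30-OHK cell line, read out with a cell viability assay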
Description: SANGER: Inhibition of human P30-OHK cell growth in a cell viability assay.

COR-L88 = type: functional, cell-based, Homo sapiens; details: Homo sapiens, COR-L88;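 also: growth inhibition of COR-L88 cells, read out with a cell viability assay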
Description: SANGER: Inhibition of human COR-L88 cell growth in a cell viability assay.

A253 cell line = type: functional, cell-based, Homo sapiens; details: Homo sapiens, A253;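 also: growth inhibition of A253 cells, read out with a cell viability assay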
Description: SANGER: Inhibition of human A253 cell growth in a cell viability assay.

`NC(=O)Nc1cc(-c2cccc(F)c2)sc1C(=O)N[C@H]1CCCNC1` [AZD-7762] was tested, and the IC50 (CGTH-W-1) was 14.2 nM, the IC50 (KALS-1) was 326 nM and the IC50 (TE-8) was 1120 nM. For the same compound, the IC50 (NCI-H720) was 402 nM, the IC50 (ALL-PO) was 242 nM and the IC50 (RXF 393) was 290 nM. It also gave an IC50 (NCI-H226) greater than 2000 nM, an IC50 (SW 954) of 401 nM and an IC50 (SK-LMS-1) greater than 2000 nM. The IC50 (TE-12) was greater than 2000 nM, the IC50 (NCI-H1648) was greater than 2000 nM and the IC50 (LOX IMVI) was 429 nM. It also gave an IC50 (MN-60) of 721 nM, an IC50 (MV4-11) of less than 7.81 nM and an IC50 (NCI-H2126) greater than 2000 nM. The IC50 (HEL) was 225 nM, the IC50 (BT-474) was greater than 2000 nM and the IC50 (DJM-1) was 886 nM. For the same compound, the IC50 (BE-13) was 201 nM, the IC50 (ACN) was 172 nM and the IC50 (ES1) was 71.5 nM. For the same compound, the IC50 (VA-ES-BJ) was 226 nM, the IC50 (Calu-6) was 1410 nM and the IC50 (NB5) was 797 nM. It also gave an IC50 (HCE-4) of 970 nM, an IC50 (NCI-H1355) of 679 nM and an IC50 (SK-MEL-2) of 100 nM. For the same compound, the IC50 (NCI-H1092) was greater than 2000 nM, the IC50 (NB10) was 591 nM and the IC50 (IA-LM) was 1400 nM. For the same compound, the IC50 (HCC1187) was 967 nM, the IC50 (MHH-NB-11) was 390 nM and the IC50 (NCI-H1395) was 198 nM. It also gave an IC50 (NCI-H446) of 748 nM, an IC50 (MPP-89) of 245 nM and an IC50 (NCI-H1770) greater than 2000 nM. It also gave an IC50 (K562) greater than 2000 nM, an IC50 (IST-SL1) of 628 nM and an IC50 (SK-N-DZ) of 531 nM. For the same compound, the IC50 (GCIY) was 1390 nM, the IC50 (GI-ME-N) was 455 nM and the IC50 (U-266) was 763 nM. The IC50 (MOLT-4) was 239 nM, the IC50 (OMC-1) was 575 nM and the IC50 (EW-3) was 736 nM. The IC50 (EW-13) was greater than 2000 nM, the IC50 (P30-OHK) was 132 nM and the IC50 (COR-L88) was 365 nM.
For `CO[C@@H]1[C@H](N(C)C(=O)c2ccccc2)C[C@H]2O[C@]1(C)n1c3ccccc3c3c4c(c5c6ccccc6n2c5c31)C(=O)NC4` [MIDOSTAURIN], the IC50 (TE-8) was greater than 512 nM, the IC50 (SK-LMS-1) was 353 nM and the IC50 (BE-13) was greater than 512 nM. It also gave an IC50 (NCI-H1770) greater than 512 nM.
`CC1(C)CCC(c2ccc(Cl)cc2)=C(CN2CCN(c3ccc(C(=O)NS(=O)(=O)c4ccc(N[C@H](CCN5CCOCC5)CSc5ccccc5)c(S(=O)(=O)C(F)(F)F)c4)cc3)CC2)C1` [NAVITOCLAX] showed an IC50 (CGTH-W-1) greater than 2000 nM, an IC50 (KALS-1) greater than 2000 nM and an IC50 (TE-8) greater than 2000 nM. For the same compound, the IC50 (NCI-H720) was 40.1 nM, the IC50 (ALL-PO) was 220 nM and the IC50 (RXF 393) was greater than 2000 nM. The IC50 (NCI-H226) was greater than 2000 nM, the IC50 (SW 954) was greater than 2000 nM and the IC50 (TE-12) was greater than 2000 nM. It also gave an IC50 (NCI-H1648) of 1710 nM, an IC50 (LOX IMVI) greater than 2000 nM and an IC50 (MN-60) greater than 2000 nM. For the same compound, the IC50 (MV4-11) was 15.9 nM, the IC50 (NCI-H2126) was greater than 2000 nM and the IC50 (HEL) was 1310 nM. For the same compound, the IC50 (BT-474) was greater than 2000 nM, the IC50 (DJM-1) was greater than 2000 nM and the IC50 (BE-13) was 365 nM. It also gave an IC50 (ACN) greater than 2000 nM, an IC50 (ES1) greater than 2000 nM and an IC50 (VA-ES-BJ) greater than 2000 nM. For the same compound, the IC50 (Calu-6) was greater than 2000 nM, the IC50 (NB5) was greater than 2000 nM and the IC50 (HCE-4) was greater than 2000 nM. For the same compound, the IC50 (NCI-H1355) was greater than 2000 nM, the IC50 (SK-MEL-2) was greater than 2000 nM and the IC50 (A253 cell line) was greater than 2000 nM. It also gave an IC50 (NCI-H1092) of 103 nM, an IC50 (NB10) greater than 2000 nM and an IC50 (IA-LM) greater than 2000 nM. The IC50 (HCC1187) was greater than 2000 nM, the IC50 (MHH-NB-11) was greater than 2000 nM and the IC50 (NCI-H1395) was greater than 2000 nM. It also gave an IC50 (NCI-H446) greater than 2000 nM, an IC50 (MPP-89) greater than 2000 nM and an IC50 (NCI-H1770) greater than 2000 nM. For the same compound, the IC50 (K562) was greater than 2000 nM, the IC50 (IST-SL1) was 353 nM and the IC50 (SK-N-DZ) was greater than 2000 nM. The IC50 (GCIY) was greater than 2000 nM, the IC50 (GI-ME-N) was greater than 2000 nM and the IC50 (U-266) was greater than 2000 nM. The IC50 (MOLT-4) was 152 nM, the IC50 (OMC-1) was 1860 nM and the IC50 (EW-3) was 80.5 nM. It also gave an IC50 (EW-13) of 583 nM, an IC50 (P30-OHK) of 1050 nM and an IC50 (COR-L88) of 365 nM.
